# Assay results from US8492349B2, “Analgesia with minimal tolerance and dependence by a mu opioid receptor agonist that also binds filamin A” (Pain Therapeutics, Inc., priority 2007, dated 2013).
# Where two headings read alike, the source gives them in different places.
# Legend:
# MOR = test: Stimulation of MOR screen; format: biochemical
# Excerpt: In that Table, the log P value is the logarithm of a compound's partition coefficient between n-octanol and water [log(coctanol/cwater)], and is a well established measure of the compound's […]. “C Log P” shown in the Table is a calculated Log P value that is obtained using a program copyrighted (1988-2008) by Pomona College and BioByte, Inc. of Claremont, Calif.
# [1] = tested on: other Go-coupled receptors; test: Stimulation of other Go-coupled receptors; format: biochemical; conditions: 0.1 μM screen
# MOR-Gs coupling [2] = test: Chronic morphine-induced MOR Go-to-Gs coupling switch in organotypic striatal slice cultures; format: cell-based, rat; conditions: for effect on NLX-mediated prevention of cellular indices of morphine tolerance (Go-to-Gs switch and cAMP): 10 μM peptide added to morphine plus 10 pM NLX
# Protocol: For determination of MOR-G protein coupling, slices were homogenated to generate synaptic membranes. […] Following centrifugation, striatal membrane lysates were immunoprecipitated with immobilized anti-Gαs/olf or -Gαo conjugated with immobilized protein G-agarose beads. The level of MOR in anti-Gαs/olf or -Gαo immunoprecipitates was determined by Western blotting using specific anti-MOR antibodies.
# [3] = biological target: T1, FLNA in A7 cell membranes (Homo sapiens, UniProt P21333); test: [3H]NLX binding to membranes from FLNA-expressing A7 cells (competition); conditions: for displacement of [3H]NLX binding to A7 membranes: FIG. 3a; for attenuation of [3H]NLX binding to A7 cell membranes: 10 μM peptide, 500 pM [3H]NLX
# T1 construct: expressed in transfected cells; host or cells: A7, a subclone of human melanoma M2, stably transfected with human FLNA cDNA; membranes
# T1 sequence (P21333 whole entry): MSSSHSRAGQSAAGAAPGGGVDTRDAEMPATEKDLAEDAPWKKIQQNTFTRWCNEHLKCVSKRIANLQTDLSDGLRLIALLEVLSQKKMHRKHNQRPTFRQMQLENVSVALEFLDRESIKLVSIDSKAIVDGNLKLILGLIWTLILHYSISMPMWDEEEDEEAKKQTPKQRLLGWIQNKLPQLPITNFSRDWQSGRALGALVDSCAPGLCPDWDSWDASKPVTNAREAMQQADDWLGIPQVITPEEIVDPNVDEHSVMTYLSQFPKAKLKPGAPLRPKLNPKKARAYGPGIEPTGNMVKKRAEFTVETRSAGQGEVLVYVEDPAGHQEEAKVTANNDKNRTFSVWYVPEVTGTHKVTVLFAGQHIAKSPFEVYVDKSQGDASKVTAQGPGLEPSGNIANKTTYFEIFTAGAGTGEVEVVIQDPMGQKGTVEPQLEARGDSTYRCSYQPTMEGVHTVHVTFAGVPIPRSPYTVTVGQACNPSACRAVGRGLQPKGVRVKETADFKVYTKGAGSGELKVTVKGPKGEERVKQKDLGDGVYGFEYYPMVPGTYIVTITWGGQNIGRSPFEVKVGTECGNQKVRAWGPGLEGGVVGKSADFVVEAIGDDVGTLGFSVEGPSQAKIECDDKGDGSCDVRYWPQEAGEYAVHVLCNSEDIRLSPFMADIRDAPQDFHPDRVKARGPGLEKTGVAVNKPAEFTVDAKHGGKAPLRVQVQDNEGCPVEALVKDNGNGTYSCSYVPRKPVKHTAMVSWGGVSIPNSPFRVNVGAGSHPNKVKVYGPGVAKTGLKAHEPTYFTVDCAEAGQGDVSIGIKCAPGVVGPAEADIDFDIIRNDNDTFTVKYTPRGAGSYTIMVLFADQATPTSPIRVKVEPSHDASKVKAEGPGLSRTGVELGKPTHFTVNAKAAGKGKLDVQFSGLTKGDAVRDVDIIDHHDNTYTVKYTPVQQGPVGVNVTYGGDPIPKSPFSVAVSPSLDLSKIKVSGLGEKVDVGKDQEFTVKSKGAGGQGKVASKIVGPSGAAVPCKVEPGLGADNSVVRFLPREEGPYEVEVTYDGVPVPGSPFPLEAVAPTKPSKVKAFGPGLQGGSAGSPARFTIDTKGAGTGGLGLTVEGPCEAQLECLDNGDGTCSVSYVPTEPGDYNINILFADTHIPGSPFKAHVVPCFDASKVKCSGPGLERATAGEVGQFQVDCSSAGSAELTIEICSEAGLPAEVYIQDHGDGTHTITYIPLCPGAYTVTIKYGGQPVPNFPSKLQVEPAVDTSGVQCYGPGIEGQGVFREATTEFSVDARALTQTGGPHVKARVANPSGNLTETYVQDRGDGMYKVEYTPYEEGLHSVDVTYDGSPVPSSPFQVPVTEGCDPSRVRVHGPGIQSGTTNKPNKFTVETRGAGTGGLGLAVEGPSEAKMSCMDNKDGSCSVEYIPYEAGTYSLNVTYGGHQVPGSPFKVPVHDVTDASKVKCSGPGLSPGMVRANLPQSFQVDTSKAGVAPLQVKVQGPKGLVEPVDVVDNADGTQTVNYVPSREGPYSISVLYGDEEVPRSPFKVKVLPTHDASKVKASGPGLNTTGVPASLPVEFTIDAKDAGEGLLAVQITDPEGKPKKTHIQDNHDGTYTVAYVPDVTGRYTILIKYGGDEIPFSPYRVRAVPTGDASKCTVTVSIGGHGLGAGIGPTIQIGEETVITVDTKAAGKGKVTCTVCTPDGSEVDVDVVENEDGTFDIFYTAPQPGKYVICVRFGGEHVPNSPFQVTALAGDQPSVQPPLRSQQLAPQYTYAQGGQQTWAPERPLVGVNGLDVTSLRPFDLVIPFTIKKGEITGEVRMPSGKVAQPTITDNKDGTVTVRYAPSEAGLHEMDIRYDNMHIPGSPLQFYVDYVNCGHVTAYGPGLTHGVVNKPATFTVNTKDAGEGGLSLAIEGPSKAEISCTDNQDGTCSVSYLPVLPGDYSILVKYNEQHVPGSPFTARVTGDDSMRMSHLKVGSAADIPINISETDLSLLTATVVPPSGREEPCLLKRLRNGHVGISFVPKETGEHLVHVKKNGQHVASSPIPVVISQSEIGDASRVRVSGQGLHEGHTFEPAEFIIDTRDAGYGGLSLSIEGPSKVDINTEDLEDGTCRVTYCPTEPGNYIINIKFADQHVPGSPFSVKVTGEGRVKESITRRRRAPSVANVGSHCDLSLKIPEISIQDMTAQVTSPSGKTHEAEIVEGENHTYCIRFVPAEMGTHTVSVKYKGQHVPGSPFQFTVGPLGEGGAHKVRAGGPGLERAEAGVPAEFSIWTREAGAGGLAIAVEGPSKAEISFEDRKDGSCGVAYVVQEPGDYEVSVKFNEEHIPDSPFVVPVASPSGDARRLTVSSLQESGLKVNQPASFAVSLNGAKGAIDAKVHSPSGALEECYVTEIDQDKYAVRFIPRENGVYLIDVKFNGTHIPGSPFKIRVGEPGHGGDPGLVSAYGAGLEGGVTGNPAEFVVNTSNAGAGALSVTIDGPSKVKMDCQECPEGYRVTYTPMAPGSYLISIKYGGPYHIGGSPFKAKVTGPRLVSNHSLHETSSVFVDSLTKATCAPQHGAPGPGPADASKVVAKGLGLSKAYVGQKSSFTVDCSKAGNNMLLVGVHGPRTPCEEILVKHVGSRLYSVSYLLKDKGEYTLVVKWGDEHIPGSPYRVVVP
# Protocol: To confirm FLNA as the high-affinity target of NLX, [^3H]NLX binding to the human melanoma cell line M2 and its subclone A7 was assessed. The M2 subclone lacks FLNA and MOR and its subclone A7 is stably transfected with human FLNA cDNA (obtained from Drs. Stossel and Ohta at Harvard Medical School).
# Membranes prepared from A7 cells (50 μg) were incubated in binding medium consisting of 50 mM Tris HCl, pH 7.5; 100 mM NaCl; and protease and protein phosphatase inhibitors with 500 pM [^3H]NLX for 30 minutes at 37° C. Total incubation volume was 500 μl. Non-specific binding was defined by 1 μM NTX. […] Reactions were terminated by, rapid filtration through GF/B membranes under vacuum. The filters were washed twice with 5 ml ice-cold binding medium, and [^3H]NLX retained on the filters was measured by liquid scintillation spectrometry.
# (§1) To determine the NLX binding site on FLNA, various overlapping peptides encoding the c-terminal section of FLNA were used to compete for [^3H]NLX binding to FLNA using either A7 cell membranes or purified FLNA from A7 or SK-N-MC cells. Peptides were prepared by Sigma-Genosys (The Woodlands, Tex.). The reaction mixture consisted of 100 μg A7 membranes or 2 μg purified FLNA, 500 pM [^3H]NLX, and 10 μM of either FLNA2550-2560, FLNA2556-2565, FLNA2561-2570, FLNA2566-2575 or FLNA2576-2581 in 500 μl binding medium. The reaction was carried out at 37° C. for 30 minutes and terminated by rapid filtration through GF/B membranes under vacuum. The filters were washed twice with 5 ml ice-cold binding medium, and [^3H]NLX retained on the filters was measured by liquid, scintillation spectrometry.
# To determine the essential amino acid residue(s) within the NLX-interacting pentapeptide, four additional pentapeptides, each with one amino acid residue replaced by alanine, were used along with the correct FLNA2561-2565 pentapeptide to compete for [^3H]NLX binding to FLNA using 100 μg A7 cell membranes. Peptides were generated by Sigma-Genosys. The reaction mixture consisted of 500 pM [^3H]NLX, 100 μg A7 membranes, and 10 μM pentapeptide [AAKGL, (SEQ ID NO:13); VAKGL (SEQ ID NO:14); VAAGL (SEQ ID NO:12); VAKAL (SEQ ID NO:15) or VAKGA (SEQ ID NO:16)] in 500 μl binding medium. The reaction was conducted at 37° C. for 30 minutes and terminated by rapid filtration through GF/B membranes under reduced pressure. The filters were washed twice with 5 ml ice-cold binding medium, and [^3H]NLX retained on the filters was measured by liquid scintillation spectrometry.
# pS133-CREB = test: Acute morphine-induced CREB S133 phosphorylation in organotypic striatal slice cultures; format: cell-based, rat; conditions: for pS133CREB level in striatal tissue: 100 μM; for pS133CREB detection, treatment alone: without morphine
# Protocol: CREB in the solubilized cytosol and nucleus was immunoprecipitated with an anti-CREB antibody (Santa Cruz) and the level of pS^133-CREB was then determined by Western blotting using a specific antibody directed against pS^133-CREB (Santa Cruz).
# purified human FLNA = biological target: T2, purified human FLNA (Homo sapiens, UniProt P21333); test: [3H]NLX binding to immunopurified FLNA; conditions: for attenuation of [3H]NLX binding to purified human FLNA: 10 μM peptide, 500 pM [3H]NLX
# T2 construct: made in house
# T2 sequence (P21333 whole entry): as above
# Protocol: as §1
# FLNA = FLNA (Homo sapiens, UniProt P21333); test: FLNA binding affinity screen
# FLNA, sequence (P21333 whole entry): as above
# MOR-Gs coupling [4] = test: Acute morphine-induced MOR Go-to-Gs coupling switch in organotypic striatal slice cultures; format: cell-based, rat; conditions: for effect on acute morphine-induced coupling switch by MOR: pre-treatment 10 μM peptide
# Protocol: Tissues were harvested 5, 15 or 60 minutes after the drug exposure by centrifugation. For determination of MOR-G protein coupling, slices were homogenated to generate synaptic membranes and cytosolic fractions. Synaptic membranes (400 μg) were then solubilized with 0.5% digitonin/0.2% sodium cholate/0.5% NP-40 in 250 μl of immunoprecipitation buffer (25 mM HEPES, pH 7.5; 200 mM NaCl, 1 mM EDTA, 50 μg/ml leupeptin, 10 μg/ml aprotinin, 2 μg/ml soybean trypsin inhibitor, 0.04 mM PMSF and mixture of protein phosphatase inhibitors). Following centrifugation, striatal membrane lysates were immunoprecipitated with immobilized anti-Gαs/olf or -Gαo (Santa Cruz) conjugated with immobilized protein A-agarose beads (Pierce-Endogen). The level of MOR in anti-Gαs/olf or -Gαo immunoprecipitates was determined by Western blotting using specific anti-MOR antibodies.
# [5] = cited from earlier work
# [6] = co-treatment 100 pM with 100 μM morphine
# [7] = pre-treatment 10 μM peptide, 100 μM morphine
# Protocol for cAMP accumulation: Tissues were homogenized by sonication and protein precipitated with 1M TCA. The supernatant obtained after centrifugation was neutralized using 50 mM Tris, pH 9.0. The level of cAMP in the brain lysate was measured by a cAMP assay kit (PerkinElmer Life Science, Boston) according to manufacturer's instructions.
molecule,measurement,setting,value
COc1cc(CCC(O)CC2c3c(cc4c(c3OC)OCO4)CCN2C)ccc1O (stereo not shown) [Compound 3],Stimulation of MOR at (at 0.1 μM),MOR,78%
same,Stimulation of other Go-coupled receptors,[1],16%
CN1CC[C@]23c4c5ccc(O)c4O[C@H]2[C@@H](O)C=C[C@H]3[C@H]1C5 [morphine],effect on DAMGO-mediated reduction in cAMP accumulation,cAMP accumulation; chronic 100 μM treatment,attenuated
same,Go-to-Gs coupling switch by MOR after chronic treatment,"MOR-Gs coupling [2]; 100 μM, 1 hour twice daily for 7 days",induced a robust Go-to-Gs coupling switch
same,displacement of [3H]NLX binding to A7 membranes,[3],not
same,pS133CREB level in striatal tissue,pS133-CREB; after 5 and 15 minutes of exposure,robust level
same,pS133CREB level in striatal tissue,pS133-CREB; after 1 hour of exposure,only a residual level
"FLNA2561-2570: overlapping peptide encoding the c-terminal section of FLNA (VAKGLGLSKA; UniProt P21333 2561-2570, looked up, fragment)",attenuation of [3H]NLX binding to purified human FLNA,purified human FLNA,markedly attenuated
same,effect on NLX-mediated prevention of cellular indices of morphine tolerance (Go-to-Gs switch and cAMP),MOR-Gs coupling [2],abolished
same,attenuation of [3H]NLX binding to A7 cell membranes,[3],markedly attenuated
COC(OC)C12CCC(=O)C=C1CCC1C3CCC(OC(C)=O)C3(C)CCC12 (stereo not shown) [Compound 1],Stimulation of MOR at (at 0.1 μM),MOR,79%
same,Stimulation of other Go-coupled receptors,[1],19%
"C=CCN1CC[C@]23c4c5ccc(O)c4O[C@H]2C(=O)CC[C@@]3(O)[C@H]1C5 [Naloxone, naloxone]",Kd,purified human FLNA; read-out: binding affinity for immunopurified FLNA,~43 pM
same,effect on chronic morphine-induced attenuation of the DAMGO-induced reduction in cAMP production,cAMP accumulation; 10 pM with 100 μM morphine,blocked
same,effect on acute morphine-induced pS133CREB signal,pS133-CREB; [6],virtually abolished
same,"pS133CREB detection, treatment alone",pS133-CREB,did not result in pS^133CREB detection
COc1ccc(S(=O)(=O)N2CCC3(CC2)OCCN3S(=O)(=O)c2ccc(OC)cc2)cc1 [Compound 5],Stimulation of MOR at (at 0.1 μM),MOR,91%
same,Kd,FLNA; read-out: FLNA affinity,8.65 pM
same,Stimulation of other Go-coupled receptors,[1],11%
VAKGL (SEQ ID NO:14) [decoy pentapeptide],effect on acute morphine-induced coupling switch by MOR,MOR-Gs coupling [4]; 100 μM morphine,completely prevented
same,effect on acute morphine-induced pS133CREB signal,pS133-CREB; [7],virtually abolished
COc1ccc(C(=O)CC2c3c(cc4c(c3OC)OCO4)CC[N+]2(C)C)c(OC)c1 (stereo not shown) [Compound 7],Stimulation of MOR at (at 0.1 μM),MOR,64%
same,Kd,FLNA; read-out: FLNA affinity,2.86 pM
same,Stimulation of other Go-coupled receptors,[1],21%
"O=C1CC[C@@]2(O)[C@H]3Cc4ccc(O)c5c4[C@@]2(CCN3CC2CC2)[C@H]1O5 [Naltrexone, naltrexone]",effect on acute rewarding effects of oxycodone,[5]; 3 ng/kg,without effect
same,effect on acute rewarding effects of oxycodone,"[5]; 0.03, 0.3 and 30 ng/kg",blocked
same,displacement of [3H]NLX binding to A7 membranes,[3],robustly displaced
same,IC50,"[3]; competition curve, 16 concentrations 0.2 pM to 1 μM, FIG. 4, read-out: IC50 for inhibition of [3H]NLX binding to membranes from FLNA-expressing A7 cells",43 pM
same,effect on acute morphine-induced G protein coupling switch by MOR,MOR-Gs coupling [4]; [6],prevented
same,effect on MOR coupling alone,MOR-Gs coupling [4]; without morphine,had no effect
same,Kd,FLNA,3.9 pM
same,effect on acute morphine-induced pS133CREB signal,pS133-CREB; [6],virtually abolished
same,"pS133CREB detection, treatment alone",pS133-CREB,did not result in pS^133CREB detection
COc1ccccc1CC(=O)CC1c2c(cc3c(c2OC)OCO3)CC[N+]1(C)C (stereo not shown) [Compound 6],Stimulation of MOR at (at 0.1 μM),MOR,91%
same,Stimulation of other Go-coupled receptors,[1],23%
"VAAGL (SEQ ID NO:12) [control peptide, FLNA2561-2565 withone mid-point alanine substitution]",Go coupling at 15 minutes,"MOR-Gs coupling [4]; 10 μM peptide, 100 μM morphine, 15 minutes",mildly preserved
same,effect on acute morphine-induced coupling switch by MOR,MOR-Gs coupling [4]; 100 μM morphine,did not prevent
same,effect on acute morphine-induced pS133CREB signal,pS133-CREB; [7],did not significantly diminish
"FLNA2556-2565: overlapping peptide encoding the c-terminal section of FLNA (DASKVVAKGL; UniProt P21333 2556-2565, looked up, fragment)",attenuation of [3H]NLX binding to purified human FLNA,purified human FLNA,markedly attenuated
same,attenuation of [3H]NLX binding to A7 cell membranes,[3],markedly attenuated
C[C@@H]1CCC2[C@]3(C)COC(C)(C)OC3CC[C@@]2(C)C12CCC(CO)(CCO)O2 (stereo partly shown) [Compound 2],Stimulation of MOR at (at 0.1 μM),MOR,67%
same,Stimulation of other Go-coupled receptors,[1],11%
"FLNA2550-2560: overlapping peptide encoding the c-terminal section of FLNA (PGPGPADASKV; UniProt P21333 2550-2560, looked up, fragment)",effect on NLX-mediated prevention of cellular indices of morphine tolerance (Go-to-Gs switch and cAMP),MOR-Gs coupling [2],not
"FLNA2566-2575: overlapping peptide encoding the c-terminal section of FLNA (GLSKAYVGQK; UniProt P21333 2566-2575, looked up, fragment)",effect on NLX-mediated prevention of cellular indices of morphine tolerance (Go-to-Gs switch and cAMP),MOR-Gs coupling [2],not
C[C@@H](NC(=O)[C@@H](N)Cc1ccc(O)cc1)C(=O)NCC(=O)N(C)[C@@H](Cc1ccccc1)C(=O)NCCO [DAMGO],Stimulation of MOR at (at 0.1 μM),MOR,92%
same,Stimulation of other Go-coupled receptors,[1],6%
